Test results reported in paper PMC6833214, “Isolation of bioactive compounds from Bergenia ciliata (haw.) Sternb rhizome and their antioxidant and anticholinesterase activities” (BMC Complementary and Alternative Medicine, 2019).
Read-outs that look alike come from different tables or passages of the source.

Experiments:
[1] = ABTS free radical scavenging assay
Description: These two solutions were mixed thoroughly and kept in dark overnight for the formation of free radical. About 3 ml were taken from this stock solution and its absorbance was adjusted to 0.76 at 745 nm (control solution). About 300 μl of test samples were mixed with 3 ml of ABTS solution and incubated for 15 min at 25 °C. The absorbance of the mixture was measured using a double beam spectrophotometer at 745 nm. The same procedure was followed for the preparation of different dilution of ascorbic acid (positive control). The data was recorded in triplicate and percent ABTS free radicals scavenging activities were calculated using Eq. 1.

[2] = DPPH free radical scavenging assay
Description: The free radical scavenging abilities of the extracts were determined using 2,2- Diphenyl-1-picrylhydrazyl (DPPH) assay modified by Brand-Williams et al. with some modification. In oxidized form of DPPH have deep violet color. On getting electrons from antioxidants the deep violet color changes to yellow color. DPPH solution was prepared by dissolving 20 mg in 100 ml methanol (stock solution). From this solution 3 ml were taken and its absorbance was adjusted to 0.75 at 515 nm (control solution). For the formation of free radical, the stock DPPH solution was covered with aluminum foil and kept in dark place for 24 h. For the preparation of stock solutions, 5 mg of each extracts were dissolved in 5 ml of methanol (5000 μg/5 ml). Different dilution (1000, 500, 250, 125 and 62.5 μg/ml) were prepared from stock solutions through serial dilution. About 2 ml from each dilution were mixed with 2 ml of DPPH solution and incubated for 15 min in darkness. The percentage inhibition of DPPH free radical by extracts was calculated using the following formula: 1 %inhibition=A−B/AX100
Where A is the absorbance of DPPH in oxidized state and B is the absorbance of mixture after 15 min of reaction. Ascorbic acid was used as standard antioxidant.

[3] = target: T1, butyryl cholinesterase from equine (Equus caballus, UniProt P81908); experiment: Butyrylcholinesterase inhibition (Ellman's assay); format: biochemical; settings: for inhibition at 125 µg/mL: 125 μg/mL; for inhibition at 1000 µg/mL: 1000 μg/mL
T1 construct: purchased Sigma-Aldrich USA
Description: Acetyl cholinesterase (AChE) and butyryl cholinesterase (BChE) were used to evaluate the enzyme inhibitory potential of Bergenia ciliata rhizome extracts and isolated compounds using Ellman’s assay [18]. The mentioned enzymes when act on their respective substrates acetylthiocholine iodide and butyrylthiocholine iodide hydrolyze them which then on complexation with 5-thio-2-nitrobenzoate anion formed from DTNB give yellow color. The color change is recorded after 15 min by spectrophotometer. Phosphate buffer (pH = 8) was prepared by mixing 1.36 g/100 mL, potassium dihydrogen phosphate and 1.74 g/100 mL di-potassium hydrogen phosphate (6 and 94% respectively). The AChE solution was prepared by dissolving 0.5 mg of enzyme in 0.5 ml of phosphate buffer to get 1000 unit/ml and BChE solution was also prepared by dissolving 1 mg in 1 ml of phosphate buffer to get 10 unit/ml. These two solutions were further diluted by phosphate buffer till a final concentration of 0.03 unit/ml and 0.1 unit/ml respectively. DTNB solution (0.0002 M) and ATChI and BTChI (0.0005 M) were prepared and kept in reagent bottles in refrigerator before use.
To each test tube, 100 μl of enzyme and DTNB solutions were added and incubated for 15 min at 25 °C. After this 100 μl substrates (AChEI, BChEI) were added to each test tube and allowed to stand for 15 min. The absorbance of mixtures were recorded at 412 nm. A negative control was prepared by mixing all the above mention components except plant extracts. […] For each sample absorption was recorded for 4 minutes. Percent activities of enzyme and percent inhibition were calculated using following relations. 2 V=∆Abs/∆T 3 %enzyme activity=V/Vmaxx100
Where V is the rate of reaction in the presence of inhibitor and Vmax is the rate of reaction without inhibitor.

[4] = target: T2, acetyl cholinesterase from Electric eel (type-VI-S) (Electrophorus electricus, UniProt O42275); experiment: biochemical; settings: isolated compounds, Table 6; for inhibition at 125 µg/mL: 125 μg/mL; for inhibition at 125 µg/mL / inhibition at 250 µg/mL / inhibition at 500 µg/mL / inhibition at 1000 µg/mL: read-out: AChE percent inhibition (mean ± S.E.M); for inhibition at 250 µg/mL: 250 μg/mL; for inhibition at 500 µg/mL: 500 μg/mL; for inhibition at 1000 µg/mL: 1000 μg/mL; for IC50: read-out: AChE IC50 (converted)
T2 construct: purchased Sigma-Aldrich USA type-VI-S

[5] = 62.5 μg/mL, isolated compounds, Table 5
[6] = 125 μg/mL, isolated compounds, Table 5
[7] = 250 μg/mL, isolated compounds, Table 5
[8] = 500 μg/mL, isolated compounds, Table 5
[9] = 1000 μg/mL, isolated compounds, Table 5
[10] = isolated compounds, Table 6, read-out: BChE percent inhibition (mean ± S.E.M)
[11] = 250 μg/mL, isolated compounds, Table 6, read-out: BChE percent inhibition (mean ± S.E.M)
[12] = 500 μg/mL, isolated compounds, Table 6, read-out: BChE percent inhibition (mean ± S.E.M)
[13] = isolated compounds, Table 6, read-out: BChE IC50 (converted)

T1 sequence (P81908 whole entry): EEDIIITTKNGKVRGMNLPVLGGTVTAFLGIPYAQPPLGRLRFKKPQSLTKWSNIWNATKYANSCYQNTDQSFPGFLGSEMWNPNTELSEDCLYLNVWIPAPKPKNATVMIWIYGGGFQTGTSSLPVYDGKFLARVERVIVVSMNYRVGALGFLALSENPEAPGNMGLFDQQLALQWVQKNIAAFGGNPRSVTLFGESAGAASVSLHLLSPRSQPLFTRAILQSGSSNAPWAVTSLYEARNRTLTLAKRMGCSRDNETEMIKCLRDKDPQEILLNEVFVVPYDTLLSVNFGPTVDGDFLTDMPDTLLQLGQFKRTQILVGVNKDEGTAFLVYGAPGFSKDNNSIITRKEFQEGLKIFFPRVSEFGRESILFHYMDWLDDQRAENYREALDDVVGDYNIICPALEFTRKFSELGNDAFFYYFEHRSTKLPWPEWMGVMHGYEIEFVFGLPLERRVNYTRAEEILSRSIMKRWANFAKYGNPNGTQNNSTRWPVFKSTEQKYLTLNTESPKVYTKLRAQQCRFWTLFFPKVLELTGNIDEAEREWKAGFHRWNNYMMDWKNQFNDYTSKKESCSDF
T2 sequence (O42275 24-633): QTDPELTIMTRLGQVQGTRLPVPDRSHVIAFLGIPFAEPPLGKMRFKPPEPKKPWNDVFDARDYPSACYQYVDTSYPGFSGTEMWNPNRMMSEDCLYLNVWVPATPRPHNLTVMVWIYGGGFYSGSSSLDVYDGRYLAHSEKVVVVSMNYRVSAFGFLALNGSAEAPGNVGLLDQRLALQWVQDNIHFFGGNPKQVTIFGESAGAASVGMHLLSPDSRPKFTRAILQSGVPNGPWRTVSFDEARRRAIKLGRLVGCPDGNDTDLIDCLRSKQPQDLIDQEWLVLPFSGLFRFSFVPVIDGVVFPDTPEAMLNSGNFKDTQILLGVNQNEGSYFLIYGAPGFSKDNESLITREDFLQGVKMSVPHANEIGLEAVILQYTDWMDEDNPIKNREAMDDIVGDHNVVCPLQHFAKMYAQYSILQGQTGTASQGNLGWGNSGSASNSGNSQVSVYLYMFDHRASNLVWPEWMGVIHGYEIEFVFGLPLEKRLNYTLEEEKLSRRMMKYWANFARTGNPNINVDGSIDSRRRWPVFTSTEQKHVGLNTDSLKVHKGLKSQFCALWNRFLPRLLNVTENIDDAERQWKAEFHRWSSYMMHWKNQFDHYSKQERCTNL

| Compound | ABTS percent inhibition (mean ± S.E.M) [1, 5] | ABTS percent inhibition (mean ± S.E.M) [1, 6] | ABTS percent inhibition (mean ± S.E.M) [1, 7] | ABTS percent inhibition (mean ± S.E.M) [1, 8] | ABTS percent inhibition (mean ± S.E.M) [1, 9] | ABTS IC50 ([1]; isolated compounds, Table 5) | DPPH percent inhibition (mean ± S.E.M) [2, 5] | DPPH percent inhibition (mean ± S.E.M) [2, 6] | DPPH percent inhibition (mean ± S.E.M) [2, 7] | DPPH percent inhibition (mean ± S.E.M) [2, 8] | DPPH percent inhibition (mean ± S.E.M) [2, 9] | DPPH IC50 ([2]; isolated compounds, Table 5) | inhibition at 125 µg/mL [3, 10] | inhibition at 250 µg/mL [3, 11] | inhibition at 500 µg/mL [3, 12] | inhibition at 1000 µg/mL [3, 10] | inhibition at 125 µg/mL [4] | inhibition at 250 µg/mL [4] | inhibition at 500 µg/mL [4] | inhibition at 1000 µg/mL [4] | also measured |
| --- | --- | --- | --- | --- | --- | --- | --- | --- | --- | --- | --- | --- | --- | --- | --- | --- | --- | --- | --- | --- | --- |
| O=C1O[C@H]([C@@H](O)CO)C(O)=C1O [Ascorbic acid, reference compound] | 50.88 ± 0.32% | 58.90 ± 0.48% | 68.93 ± 0.45% | 80.29 ± 0.79% | 89.94 ± 0.86% | 62 µg/mL | 53.78 ± 0.76% | 62.90 ± 0.85% | 71.34 ± 2.16% | 80.45 ± 0.96% | 92.67 ± 0.73% | 50 µg/mL | – | – | – | – | – | – | – | – | ABTS percent inhibition (mean ± S.E.M) ([1]; 62.5 μg/mL, extracts, Table 2): 49.78 ± 0.76%; ABTS percent inhibition (mean ± S.E.M) ([1]; 125 μg/mL, extracts, Table 2): 58.90 ± 0.85%; ABTS percent inhibition (mean ± S.E.M) ([1]; 250 μg/mL, extracts, Table 2): 68.34 ± 2.16%; ABTS percent inhibition (mean ± S.E.M) ([1]; 500 μg/mL, extracts, Table 2): 80.45 ± 0.96%; ABTS percent inhibition (mean ± S.E.M) ([1]; 1000 μg/mL, extracts, Table 2): 89.67 ± 0.73%; ABTS IC50 ([1]; extracts, Table 2): 64 µg/mL; DPPH percent inhibition (mean ± S.E.M) ([2]; 62.5 μg/mL, extracts, Table 2): 52.88 ± 0.32%; DPPH percent inhibition (mean ± S.E.M) ([2]; 125 μg/mL, extracts, Table 2): 62.90 ± 0.48%; DPPH percent inhibition (mean ± S.E.M) ([2]; 250 μg/mL, extracts, Table 2): 71.93 ± 0.45%; DPPH percent inhibition (mean ± S.E.M) ([2]; 500 μg/mL, extracts, Table 2): 80.29 ± 0.79%; DPPH percent inhibition (mean ± S.E.M) ([2]; 1000 μg/mL, extracts, Table 2): 92.94 ± 0.86%; DPPH IC50 ([2]; extracts, Table 2): 50 µg/mL |
| COc1ccc2c3c1O[C@H]1C[C@@H](O)C=C[C@@]31CCN(C)C2 [Galanthamine, reference compound] | – | – | – | – | – | – | – | – | – | – | – | – | 62.43 ± 0.39% | 71.8 ± 0.48% | 86.51 ± 0.77% | 92.26 ± 0.92% | – | – | – | – | inhibition at 250 µg/mL ([3]; 250 μg/ml, extracts, Table 3, read-out: Percent BChE (mean ± SEM) inhibition): 76.72 ± 0.72%; inhibition at 500 µg/mL ([3]; 500 μg/ml, extracts, Table 3, read-out: Percent BChE (mean ± SEM) inhibition): 84.7 ± 1.2% |
| O=c1c(O)c(-c2ccc(O)cc2O)oc2cc(O)cc(O)c12 [Morin, 2-(2,4-Dihydroxyphenyl)-3,5,7-trihydroxychromen-4-one] | 30.50 ± 1.43 % | 44.15 ± 0.56 % | 58.04 ± 2.44 % | 70.67 ± 1.02 % | 80.86 ± 1.09 % | 145 µg/mL | 40.85 ± 0.94 % | 48.72 ± 1.11 ^ns % | 60.25 ± 2.28 % | 72.72 ± 1.56 % | 83.93 ± 0.72 % | 105 µg/mL | 51.1 ± 0.56% | 60.51 ± 0.5% | 68.4 ± 2.22% | 80.46 ± 0.76% | 56.3 ± 1.45% | 68.8 ± 0.8% | 77.2 ± 0.91% | 85.5 ± 3.19% | IC50 [4]: 212 µM; IC50 [3, 13]: 384 µM |
| Oc1cccc(O)c1O [Pyrogallol, Benzene-1,2,3-triol] | 39.60 ± 1.39 % | 53.26 ± 1.62 % | 66.42 ± 0.90 ^ns % | 77.81 ± 1.09 ^ns % | 87.02 ± 0.81 ^ns % | 85 µg/mL | 48.72 ± 0.89 ^ns % | 59.93 ± 2.18 ^ns % | 70.30 ± 1.05 ^ns % | 81.64 ± 1.33 ^ns % | 89.35 ± 0.92 ^ns % | 68 µg/mL | 58.3 ± 0.93% | 71.2 ± 1.38% | 80.35 ± 0.3% | 92 ± 1.89% | 66.2 ± 2.14% | 80.12 ± 0.62% | 87.4 ± 1.51% | 94.35 ± 0.72% | IC50 [4]: 222 µM; IC50 [3, 13]: 555 µM |
| C[C@@H]1O[C@@H](OC[C@H]2O[C@@H](Oc3c(-c4ccc(O)c(O)c4)oc4cc(O)cc(O)c4c3=O)[C@H](O)[C@@H](O)[C@@H]2O)[C@H](O)[C@H](O)[C@H]1O [Rutin, 3,3,4,5,7-pentadroxyflavones-3-rutinoside] | 29.75 ± 2.18 % | 44.30 ± 0.79 % | 57.56 ± 1.42 % | 69.05 ± 0.64 % | 78.33 ± 0.63 % | 183 µg/mL | 35.38 ± 2.28 % | 46.63 ± 1.17 % | 57.47 ± 0.93 % | 68.43 ± 1.40 % | 80.90 ± 1.27 % | 150 µg/mL | 45 ± 3.79% | 56.7 ± 0.7% | 62.5 ± 1.72% | 72 ± 0.86% | 48.1 ± 0.64% | 60.2 ± 2.35% | 66.72 ± 0.62% | 75.1 ± 1.41% | IC50 [4]: 193 µM; IC50 ([3]; BChE IC50, isolated compounds, Table 6): 282 µM |
